Data from BindingDB's records for doi:10.7270/Q2B27SQ0 (Nmmlsc, 2008).

Target: Apoptosis regulator Bcl-2 (Homo sapiens, UniProt P10415)
Assay: PubChem AID 950
[1] = inactive by the depositor's call

Apoptosis regulator Bcl-2, sequence (P10415 whole entry): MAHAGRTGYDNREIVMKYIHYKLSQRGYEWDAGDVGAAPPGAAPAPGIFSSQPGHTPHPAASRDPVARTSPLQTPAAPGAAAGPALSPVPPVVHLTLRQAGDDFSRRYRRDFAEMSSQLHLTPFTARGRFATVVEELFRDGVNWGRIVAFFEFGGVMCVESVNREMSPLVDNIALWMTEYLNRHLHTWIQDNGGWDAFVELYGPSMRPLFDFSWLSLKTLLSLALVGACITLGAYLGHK

Structure (SMILES)	EC50	EC50 [1]
CCC(=O)N(CC)C1C(=O)C(=O)c2ccccc2C1=O (stereo unspecified) [N-ethyl-N-(1-hydroxy-3,4-dioxo-2-naphthalenyl)propanamide]	0.98 µM	–
CC(C)(C)NC(=O)COc1ccc(CNc2ccc3[nH]c(O)nc3c2)cc1 [N-tert-butyl-2-[4-[[(2-oxidanylidene-1,3-dihydrobenzimidazol-5-yl)amino]methyl]phenoxy]ethanamide]	–	4.65 µM
O=C1c2ccccc2-c2onc3ccc(NCCCn4ccnc4)c1c23 [SMR000044769]	4.05 µM	–
CSc1nnc2c3cc(C)ccc3n(Cc3ccccc3)c2n1 [SMR000046397]	–	29.4 µM
c1ccc(-c2nc(N3CCCCCC3)c3ccccc3n2)nc1 [SMR000046752]	–	19.8 µM
CNc1ccc(Br)cc(C(=O)/C=C/c2cc(OC)ccc2OC)c1=O [SMR000115626]	–	8.97 µM
O=C(Nc1ccc2nc(-c3ccco3)c(-c3ccco3)nc2c1)NC1CC1 [SMR000118524]	–	9.26 µM
CCOC(=O)C1=C(Cc2ccc(OC)cc2)C(=O)c2ccccc2C1=O [SMR000136995]	–	13.6 µM
O=C(Nc1cccc(C(F)(F)F)c1)c1ccc2nc(-c3ccco3)c(-c3ccco3)nc2c1 [SMR000142217]	–	10.9 µM

More lines, now with the values ahead:

EC50	EC50 [1]	Structure (SMILES)
–	1.8 µM	COC(=O)c1c(C(=O)OC)c2cccc3cc(-c4ccccc4)c4ccc1c4n32 [SMR000161417]
–	18.1 µM	Nc1ccc(C2=Nc3cccc4cccc(c34)N2)cc1 [SMR000175908]
–	13.8 µM	C#CCn1cc(C=C2C(=O)c3ccccc3C2=O)c2ccccc21 [SMR000196125]
–	8.45 µM	Cc1ccc(C=NNC(=O)CSc2nnc(-c3ccc(Cl)cc3)n2-c2ccccc2)o1 [SMR000218122]
5.26 µM	–	Nc1c(C(=O)NCC2CCCO2)sc2nc3c(c(-c4ccco4)c12)CC/C3=C\c1ccco1 (stereo unspecified) [SMR000259502]
4.67 µM	–	Nc1c(C(=O)NC2CC2)sc2nc3c(c(-c4ccco4)c12)CC/C3=C/c1ccco1 [SMR000259554]
–	27.9 µM	O=C1c2ccccc2-c2onc3ccc(N4CCCC4)c1c23 [SMR000279741]
5.96 µM	–	CC(=NNC(=O)c1cc(O)c(O)c(O)c1)c1ccc([N+](=O)[O-])cc1 [SMR000312589]
22.4 µM	–	CCN1/C(=C/C(C)=C/c2sc3ccccc3[n+]2CC)Sc2ccccc21 [SMR000354813]
–	4.95 µM	CCN(CC)C(=O)COC(=O)c1cc(-c2ccco2)nc2ccccc12 [SMR000377201]
–	15.2 µM	CCOC(=O)c1nc(Nc2ccc(C(=O)OC)cc2)c2ccccc2n1 [ethyl 4-(4-methoxycarbonylanilino)quinazoline-2-carboxylate]
–	2.44 µM	CN(N=Cc1ccncc1)C1=NS(=O)(=O)c2ccccc21 [isonicotinaldehyde (1,1-dioxido-1,2-benzisothiazol-3-yl)(methyl)hydrazone]
